Where two headings read alike, the source gives them in different places.
Tests used:
[1] = test system: Barnett sulfate reducing bacteria (SRB) culture
[2] = test system: freshwater denitrifying culture; details: 20 mM; 30-minute exposure; cited from earlier work
[3] = 1 mM nitrite, approximately 24 hours

In the case of `O=NO` [nitrite], the cATP concentration [1, 3] was “below 1000 picograms per mL”, the “reduction in cATP concentrations” value [1, 3] was greater than 90% and the “time required to reach a cATP concentration below 1000 picograms per mL” value ([1]; 1 mM nitrite, initial microbial equivalency 1.0×10^7 cells/mL, 30° C.) was “Approximately 24 hours”. The “reduction in cATP concentrations” value ([1]; 2 mM nitrite, same time period (approximately 24 hours)) was greater than 99%.

For `[O]=[W](=[O])([O-])[O-]` [tungstate], the “reduction of ATP levels” value [2] is given as 41%.

— patent US10925282B2, “Enhanced kill of microorganisms” (CONOCOPHILLIPS COMPANY, priority 2017, dated 2021)
